According to paper PMC10141386, “The Blockade of Mitogen-Activated Protein Kinase 14 Activation by Marine Natural Product Crassolide Triggers ICD in Tumor Cells and Stimulates Anti-Tumor Immunity” (Marine Drugs, 2023):

Biological target: MAPK14 (p38 alpha) (Homo sapiens, UniProt Q16539)
Assay: Z′-LYTE FRET kinase assay (SelectScreen, MAPK14 direct, Ser/Thr […] peptide)
Type: biochemical

MAPK14 (p38 alpha), sequence (Q16539 2-360): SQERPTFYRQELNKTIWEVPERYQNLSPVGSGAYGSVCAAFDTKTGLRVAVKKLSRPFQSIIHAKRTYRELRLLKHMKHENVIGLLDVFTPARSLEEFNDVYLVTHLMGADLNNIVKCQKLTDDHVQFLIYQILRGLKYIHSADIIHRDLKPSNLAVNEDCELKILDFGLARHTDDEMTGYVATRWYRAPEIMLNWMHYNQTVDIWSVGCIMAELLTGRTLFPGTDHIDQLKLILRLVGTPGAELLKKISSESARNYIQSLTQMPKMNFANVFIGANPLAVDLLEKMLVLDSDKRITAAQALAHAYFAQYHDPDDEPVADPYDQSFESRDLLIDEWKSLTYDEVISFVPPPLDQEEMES

`C=C1C(=O)OC2C1C(OC(C)=O)C/C(C)=C/CC(OC(C)=O)/C(C)=C/CC(OC(C)=O)C1(C)OC21` (stereo not shown) [crassolide] gave an IC50 of about 5.15 µM.
